Drawing on US20240174637A1, “DEGRADERS OF GRK2 AND USES THEREOF” (Sonata Therapeutics, Inc., priority 2021, published 2024), this text covers IC50 and inhibition for five molecules.

The target in test [1] is T1, GRK2 (Homo sapiens, UniProt P25098).
T1 sequence (P25098 1-689): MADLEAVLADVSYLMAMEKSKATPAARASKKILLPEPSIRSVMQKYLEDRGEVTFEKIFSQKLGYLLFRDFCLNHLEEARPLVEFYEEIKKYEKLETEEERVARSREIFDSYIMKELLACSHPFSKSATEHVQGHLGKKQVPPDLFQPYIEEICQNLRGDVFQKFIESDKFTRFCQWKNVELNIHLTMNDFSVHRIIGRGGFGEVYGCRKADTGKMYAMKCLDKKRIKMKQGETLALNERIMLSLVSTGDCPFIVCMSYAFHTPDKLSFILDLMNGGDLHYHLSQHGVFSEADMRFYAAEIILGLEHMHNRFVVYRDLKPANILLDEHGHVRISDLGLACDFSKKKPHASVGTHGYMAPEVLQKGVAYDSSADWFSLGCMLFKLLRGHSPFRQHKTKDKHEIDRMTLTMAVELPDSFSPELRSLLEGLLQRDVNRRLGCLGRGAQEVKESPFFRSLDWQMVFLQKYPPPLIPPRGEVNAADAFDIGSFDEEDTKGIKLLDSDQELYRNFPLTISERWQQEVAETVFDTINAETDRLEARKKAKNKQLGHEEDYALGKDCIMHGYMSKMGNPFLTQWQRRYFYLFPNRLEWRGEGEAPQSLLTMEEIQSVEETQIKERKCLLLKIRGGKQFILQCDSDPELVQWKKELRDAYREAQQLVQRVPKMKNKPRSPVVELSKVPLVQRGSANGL
In words: GRK2 Inhibition Assay (TR-FRET, Example 1). Particulars: for IC50: TR-FRET, 7 μM ATP, read-out: Enzymatic GRK2 Assay: IC50 (nM) (Example 1); for pIC50: Table 4, Example 1 assay, read-out: Enzymatic GRK2 IC50: Av IC50 GRK2. Format: biochemical. A digest of the protocol: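 GRK2 (1 nM) pre-incubated 30 min RT with compounds in HEPES/MgCl2/DTT/Tween-20/EGTA buffer, then reacted 90 min RT with 7 μM ATP and 50 nM ULight-TopoIIα substrate. Stopped with EDTA plus Eu anti-TopoIIα antibody; TR-FRET read after 60 min.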
Background: In TR-FRET formats the signal depends on donor and acceptor labels being close together.

The next test concerns PAXF1657 EV. In words: 7-day cellular proliferation assay (CellTiter-Glo), PAXF1657 EV. Format: cell-based. The settings on record: for IC50: 168 h, 7-day, read-out: 7-day proliferation assay: IC50 GeoMean (uM) [Cell Line: PAXF1657 EV]; for pIC50: proliferation, read-out: GeoMean IC50 (UM) PAXF1657 EV. A digest of the protocol: (§1)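 PAXF1657 pancreatic cancer cells (GRK2-overexpressing vs empty vector; CRISPR GRK2 knockout vs non-targeting control) were seeded at 500 cells/well in RPMI1640/10% FBS, then given a 10-point series, 30 μM-0.0002 μM in 0.3% DMSO. Medium and compound were refreshed after 3 days; CellTiter-Glo luminescence was read at day 7.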

For another test, the system named is PAXF1657 KO Clone #4. In words: 7-day cellular proliferation assay (CellTiter-Glo), PAXF1657 KO Clone #4. Format: cell-based. The method, boiled down: as §1
For test [2], the target named is T1, GRK2. Kind of test: GRK2 Degradation Assay and Western Blot in PAXF1657 cells. Type of test: cell-based. Further details: endogenous in cells; host or cells: PAXF1657. A digest of the protocol:
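PAXF1657 cells grown to 70% confluency, then treated with compounds at 0–10 μM for 6 to 24 h at 37 °C. Lysates in PBS with 1% NP40 run on SDS-PAGE. GRK2 protein detected by western blot with β-actin as loading reference, using ECL chemiluminescence.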
A general note: Immunoblotting shows a protein as a band on a membrane.

Setting [3] is: 168 h, 7-day, read-out: 7-day proliferation assay: IC50 GeoMean (uM) [Cell Line: PAXF1657 KO Clone #4].
[4] abbreviates: 1 uM, PAXF1657 EV, 24 hrs, read-out: % GRK2 degradation at 1 uM in PAXF1657 EV (24 hrs).
The mark [5] stands for this setting: 3 uM, PAXF1657 EV, 24 hrs, read-out: % GRK2 degradation at 3 uM in PAXF1657 EV (24 hrs).
Setting [6] is: proliferation, read-out: GeoMean IC50 (uM) PAXF1657 KO Clone #4.
[7] abbreviates: Conc 0.3 uM, read-out: Degradation Assay - 3 point: Degradation (%).
The mark [8] stands for this setting: Conc 1 uM, read-out: Degradation Assay - 3 point: Degradation (%).
The mark [9] stands for this setting: Conc 3 uM, read-out: Degradation Assay - 3 point: Degradation (%).

pIC50: −log10 of the molar value. Read-outs that look alike come from different tables or passages of the source.

For `Cc1ncsc1-c1ccc(CNC(=O)[C@@H]2C[C@@H](O)CN2C(=O)[C@@H](NC(=O)CCCCCOCCOCCOCCCCCCOc2ccc(C(F)(F)F)c(CNC(=O)c3cccc(NCc4nnc(-c5ccncn5)n4C)c3)c2)C(C)(C)C)cc1` [Compound D92, (2S,4R)-1-((S)-2-(tert-butyl)-22-(3-((3-(((4-methyl-5-(pyrimidin-4-yl)-4H-1,2,4-triazol-3-yl)methyl)amino)benzamido)methyl)-4-(trifluoromethyl)phenoxy)-4-oxo-10,13,16-trioxa-3-azadocosan-1-oyl)-4-hydroxy-N-(4-(4-methylthiazol-5-yl)benzyl)pyrrolidine-2-carboxamide], the values for the IC50 at GRK2 [1], in the test on PAXF1657 EV and with PAXF1657 KO Clone #4 (setting [3]) were under 100 nM, under 1 µM and over 10 µM, respectively. Besides, the inhibition at 0.3 µM at GRK2 [2] (0.3 uM, PAXF1657 EV, 24 hrs, read-out: % GRK2 degradation at 0.3 uM in PAXF1657 EV (24 hrs)) amounted to 34%. Also, the inhibition at 1 µM on GRK2 [2] (setting [4]) was determined as 12%. For the same molecule, on GRK2 [2] (setting [5]), the inhibition at 3 µM came to 5%.
For `CN[C@@H](C)C(=O)N[C@H](C(=O)N1CCC[C@H]1c1nc(C(=O)c2cccc(OCc3cn(CCCCCCOc4cccc(CNC(=O)c5cccc(NCc6nnc(-c7ccncn7)n6C)c5)c4)nn3)c2)cs1)C1CCCCC1` [Compound D102, N-(3-((6-(4-((3-(2-((S)-1-((S)-2-cyclohexyl-2-((S)-2-(methylamino)propanamido)acetyl)pyrrolidin-2-yl)thiazole-4-carbonyl)phenoxy)methyl)-1H-1,2,3-triazol-1-yl)hexyl)oxy)benzyl)-3-(((4-methyl-5-(pyrimidin-4-yl)-4H-1,2,4-triazol-3-yl)methyl)amino)benzamide], the IC50 was under 100 nM on GRK2 [1], under 1 µM in the test on PAXF1657 EV and 1 to 10 µM in the test with PAXF1657 KO Clone #4 (setting [3]). In addition, the inhibition at 1 µM on GRK2 [2] (setting [4]) was determined as 70%. The inhibition at 3 µM at GRK2 [2] (setting [5]) was determined as 73%.
In the case of `CN[C@@H](C)C(=O)N[C@H](C(=O)N1CCC[C@H]1c1nc(C(=O)c2cccc(OCc3cn(CCCCCCOc4cccc([C@@H](C)NC(=O)c5cccc(NCc6nnc(-c7ccncn7)n6C)c5)c4)nn3)c2)cs1)C1CCCCC1` [Compound D105], the pIC50 was 8.06 at GRK2 [1] and 6.96 with PAXF1657 EV. The IC50 with PAXF1657 KO Clone #4 (setting [6]) turned out to be 3.72 µM. For the same molecule, at GRK2 [2] (setting [7]), the inhibition at 0.3 µM amounted to 87%. Besides, on GRK2 [2] (setting [8]), the inhibition at 1 µM turned out to be 86%. Besides, the inhibition at 3 µM at GRK2 [2] (setting [9]) was determined as 85%.
For `Cc1ncsc1-c1ccc(CNC(=O)[C@@H]2C[C@@H](O)CN2C(=O)[C@@H](NC(=O)CCCCOCCOCCOCCCCCCOc2cccc(CNC(=O)c3cccc(NCc4nnc(-c5ccncn5)n4C)c3)c2)C(C)(C)C)cc1` [Compound D109, (2S,4R)-1-((S)-2-(tert-butyl)-21-(3-((3-(((4-methyl-5-(pyrimidin-4-yl)-4H-1,2,4-triazol-3-yl)methyl)amino)benzamido)methyl)phenoxy)-4-oxo-9,12,15-trioxa-3-azahenicosan-1-oyl)-4-hydroxy-N-(4-(4-methylthiazol-5-yl)benzyl)pyrrolidine-2-carboxamide], the pIC50 is 7.26 at GRK2 [1] and 6.17 in the test with PAXF1657 EV. Further, in the test with PAXF1657 KO Clone #4 (setting [6]), the IC50 is 5.17 µM. Further, at GRK2 [2] (setting [7]), the inhibition at 0.3 µM was 26.1%. Further, the inhibition at 1 µM at GRK2 [2] (setting [8]) came out at 45.9%. Also, the inhibition at 3 µM at GRK2 [2] (setting [9]) was determined as 66.6%.
Turning to `Cc1ncsc1-c1ccc(CNC(=O)[C@@H]2C[C@@H](O)CN2C(=O)[C@@H](NC(=O)CCCOCCOCCOCCCCCCOc2ccc([C@@H](C)NC(=O)c3cccc(NCc4nnc(-c5ccncn5)n4C)c3)cc2)C(C)(C)C)cc1` [Compound D116], the pIC50 was 8.18 on GRK2 [1] and 5.73 in the test on PAXF1657 EV. In the test on PAXF1657 KO Clone #4 (setting [6]), the IC50 amounted to 7.48 µM. For the same molecule, the inhibition at 0.3 µM on GRK2 [2] (setting [7]) was 15%. Further, on GRK2 [2] (setting [8]), the inhibition at 1 µM came to 30%. Moreover, the inhibition at 3 µM at GRK2 [2] (setting [9]) is -40%.

As a reminder, the pIC50 is the negative decadic logarithm of the IC50, by convention in mol/L.
